This assay has as its system Saccharomyces cerevisiae lifespan shortening, growth inhibition. Put plainly: Saccharomyces cerevisiae growth inhibition potency – dose response (AID 849).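 Further: yeast growth read as optical density after two days at 30 degrees C.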

The results in this text go back to PubChem BioAssay AID849 (SRMLSC, 2007).

Each structure is given as a SMILES string. The source made the active and inactive calls. How the calls were made is not given here.

For `CCC1C(=O)N=C(SCC(=O)Nc2ccccc2)NC1=O` (stereo unspecified), the IC50 – broadly, the concentration at which inhibition is half-maximal – is > 100 µM (inactive).

With `CCN(CC)S(=O)(=O)c1ccc(NC(=O)CSc2cccc[n+]2[O-])cc1`, the concentration for half-maximal inhibition (IC50) is 24.2 µM.

For `Cc1ccc(-n2c(C)cc(C(=O)COC(=O)c3ccc[nH]c3=O)c2C)cc1C`, the IC50 was 3.98 µM.

Turning to `Cc1cccc(NC(=O)CC2SC(=O)N(c3ccccc3)C2=O)c1` (stereo unspecified), the IC50 is > 100 µM (inactive).

For `CCSc1nc2ccccc2n1S(=O)(=O)c1ccccc1`, the IC50 is > 100 µM (inactive).

As for `CC(C)(C)c1cc(C(c2cccnc2)N2CCN(CCO)CC2)cc(C(C)(C)C)c1O` (stereo unspecified), the IC50 was 17.3 µM.

Regarding `Cc1sc2ncnc(N/N=C/c3ccccc3O)c2c1C`, the IC50 was 42.2 µM.

For `Nc1c(C(=O)NCCc2ccccc2)c2nc3ccccc3nc2n1CCN1CCOCC1`, the IC50 is 22.3 µM.

Turning to `N#CC(c1cccc(Cl)c1)c1ccc2c(C(F)(F)F)cc(C(F)(F)F)nc2n1` (stereo unspecified), the IC50 was > 100 µM (inactive).

For `Cc1c(Cl)cccc1N=Cc1ccc([N+](=O)[O-])s1`, the IC50 was > 100 µM (inactive).

Turning to `COc1cccc(/C=N/N2C(=O)CSC2=S)c1O`, the IC50 was > 100 µM (inactive).

In the case of `CCOC(=O)C(=NCCCN(C)C)NNc1ccc(Br)cc1`, the IC50 was 11.1 µM.

In the case of `Cc1ccc(-c2cc(-c3ccccc3C)[nH]n2)c(O)c1`, the half-maximal inhibitory concentration (IC50) was 15.8 µM.

In the case of `O=C(O)CCSc1nnc(-c2ccccc2)n1-c1ccccc1`, the IC50 was > 100 µM (inactive).

Turning to `O=C(CN1CCN(c2ncc(C(F)(F)F)cc2Cl)CC1)NCCNc1ncc(C(F)(F)F)cc1Cl`, the half-maximal inhibitory concentration (IC50) is 42.5 µM.

For `CCOCC(=O)Nc1nc2c(s1)C(=O)CC(C)(C)C2`, the IC50 is > 100 µM (inactive).

Turning to `O=C1C(=O)c2ccccc2-c2ccccc21`, the half-maximal inhibitory concentration (IC50) was 7.79 µM.

On to `COc1ccc(-c2nnc3c4ccccc4c(C)nn23)cc1`, for which the IC50 is > 100 µM (inactive).

In the case of `CCC(=O)c1c(O)n(C2CCCCCC2)c(=O)[nH]c1=O`, the 50% inhibitory concentration (IC50) is 23.4 µM.

For the compound `O=c1cnn([C@@H]2O[C@H](CO)[C@@H](O)[C@H]2O)c(=O)[nH]1`, the IC50 is 13.7 µM.

`O=C(ONC1=NCCCCC1)c1ccc(Cl)cc1`: the IC50 was 6.15 µM.

As to `CS(=O)(=O)N1CCN(C(=O)c2ccccc2F)CC1`, the IC50 is > 100 µM (inactive).

In the case of `CN1CSC(=S)N(C)C1`, the IC50 was 17.3 µM.

For the compound `CN(O)/C=c1/ccc2c(n1)C(=O)C=CC=2`, the half-maximal inhibitory concentration (IC50) was 8.11 µM.

On to `Cc1ccc(C(=O)O/N=C/c2c(N3CCOCC3)n(C)c3ccccc23)cc1`, for which the IC50 was > 100 µM (inactive).

Take `CCC(C)/C(C)=N/NC(=O)c1ccc(COc2ccc(Cl)c(C)c2)cc1` (stereo unspecified): the IC50 was 21.9 µM.

For `CC(=O)N1N=C(c2ccc(Cl)cc2)OC1(C)C`, the IC50 is > 100 µM (inactive).

`COc1ccc(-c2n[nH]c(C)c2-c2ccc(Cl)cc2)c(O)c1`: the concentration for half-maximal inhibition (IC50) was 33.4 µM.

Regarding `O=C(CCc1ccccc1)NNC(=S)NC(=O)c1ccccc1`, the IC50 is > 100 µM (inactive).

`Cc1cc2nc(C)n3c4ccccc4nc3n2n1`: the half-inhibitory concentration (IC50) is 15.4 µM.

For the compound `COc1ccccc1OCCN1CSC(=S)N(C)C1`, the IC50 is 11.8 µM.

Turning to `CC1(C)CC(=NOC(=O)c2ccccc2)CC(C)(C)N1O`, the IC50 was 8.22 µM.

On to `CC1CCN(c2nc(/C=C/c3ccccc3)nc3ccccc23)CC1`, for which the IC50 was 24.7 µM.

Take `c1cncc(-c2nnc(-c3cccnc3)nn2)c1`: the IC50 is 25.9 µM.

For `Cc1ccc(-c2cc(C(=O)N3N=C(C(F)F)CC3(O)C(F)F)c3ccccc3n2)cc1C` (stereo unspecified), the IC50 was > 100 µM (inactive).

For the compound `Cc1cc(N2CCN(c3cccc(C)c3C)CC2)nc(-c2ccccc2)n1`, the 50% inhibitory concentration (IC50) is 35.4 µM.

Regarding `c1ccc(-c2nc3nonc3nc2-c2ccccc2)cc1`, the IC50 is > 100 µM (inactive).

`Cc1ccc2c(c1)c1c(n2C)-c2[nH]ncc2CC1`: the half-maximal inhibitory concentration (IC50) is 35.3 µM.

For the compound `COc1ccc(OCc2nnc3n2N=C(c2ccc(OC)cc2)CS3)cc1`, the IC50 is > 100 µM (inactive).

As for `CCOC(=O)c1c(-c2ccc(-c3ccccc3)cc2)csc1NC(=O)CCN1CCOCC1`, the half-inhibitory concentration (IC50) is 19.1 µM.

Turning to `Cc1cc(N/N=C/c2ccc(Cl)cc2Cl)nc(NCc2ccccc2)n1`, the IC50 is 28.9 µM.

With `COc1cccc2c(=O)c3c(cnn3C)n(C)c12`, the 50% inhibitory concentration (IC50) was 11.7 µM.

As to `O=C(Nc1cccc(N=Cc2cc(Br)cc(Br)c2O)c1)c1ccco1`, the IC50 is 19.3 µM.

Take `Cc1cc(-c2n[nH]c(=S)n2/N=C/c2cc([N+](=O)[O-])ccc2Cl)n[nH]1`: the IC50 was > 100 µM (inactive).

On to `Cc1ccc2[nH]c3c(c2c1)CCc1cn[nH]c1-3`, for which the IC50 is 15.6 µM.

Turning to `Cc1nc(Nc2ccc(Cl)c(Cl)c2)sc1C(=O)Nc1ccccc1`, the IC50 was > 100 µM (inactive).

In the case of `CCCCCCCCCCCCCCCC[n+]1cccc(C(=O)N(CC)CC)c1`, the IC50 was 3.69 µM.

`Cc1cc(C)c2c(N=NN3CCCCC3)[nH]nc2n1`: the IC50 is 5.02 µM.

For `CCOC(=O)c1sc(=S)n(-c2cc(F)ccc2F)c1N`, the IC50 is > 100 µM (inactive).

For the compound `O=C(Oc1csc(=S)n1C(=O)c1ccccc1)c1ccccc1`, the IC50 was > 100 µM (inactive).

On to `Cn1cccc1C(=O)NC(=O)CSc1cccc[n+]1[O-]`, for which the IC50 is 21.8 µM.

Regarding `CCN1/C(=C/c2ccc3cc(C)ccc3[n+]2CC)Sc2ccccc21`, the concentration for half-maximal inhibition (IC50) was 4.48 µM.

Take `Cc1cccc(OCCCCc2c(C)n[nH]c2C)c1C`: the IC50 was 38.1 µM.

Regarding `COc1ccc(NC(=O)CC2SC(=Nc3ccccc3)NC2=O)c(OC)c1` (stereo unspecified), the IC50 is > 100 µM (inactive).

On to `Clc1cccc(CN2COc3c(cc(Cl)c4cccnc34)C2)c1`, for which the IC50 is 7.28 µM.

Consider `Cc1nn(-c2cccc(C(F)(F)F)c2)c(Cl)c1/C=N/Nc1cccc(C(=O)O)c1`, for which the IC50 was 39.8 µM.

Take `CCC(C)NC(=O)C1CCN(S(=O)(=O)c2cccc3cccnc23)CC1` (stereo unspecified): the IC50 is > 100 µM (inactive).

As for `CC1CCc2c(sc3nc(CN4CCOCC4)nc(Sc4ccccc4)c23)C1` (stereo unspecified), the IC50 is > 100 µM (inactive).

On to `O=S(=O)(Nc1ccc(-n2cccc2)cc1)c1ccc(Cl)cc1Cl`, for which the IC50 is > 100 µM (inactive).

Regarding `CCCCc1ccc(NC(=S)Nc2ccc(Nc3ccc(OC)cc3)cc2)cc1`, the IC50 was 33.1 µM.

Regarding `O=C(Nc1nnc(C2CC2)s1)c1ccccn1`, the IC50 is 42.6 µM.

As to `N/C(Cc1ccc(Cl)c(Cl)c1)=N\OC(=O)c1cccs1`, the IC50 was > 100 µM (inactive).

As to `Fc1ccc2nc3[nH]c4ccccc4c3nc2c1`, the half-maximal inhibitory concentration (IC50) is 39.9 µM.

In the case of `O=C(N/N=C/c1cc2c3c(c1O)CCCN3CCC2)c1ccccc1O`, the half-maximal inhibitory concentration (IC50) is 37.5 µM.

Turning to `CC12C(=O)N(c3cccc4cccnc34)C(=O)C1C1C=CC2C1` (stereo unspecified), the IC50 is > 100 µM (inactive).

With `OC(CNCC1CCCO1)Cn1c2ccc(Br)cc2c2cc(Br)ccc21` (stereo unspecified), the IC50 is > 100 µM (inactive).

Regarding `COc1cccc2sc(Nc3nc(-c4ccccn4)cs3)nc12`, the half-inhibitory concentration (IC50) is 20.4 µM.

For the compound `CCOC(=O)C1C(C)N=C2SCC(=O)N2C1c1cccc(Br)c1` (stereo unspecified), the IC50 was > 100 µM (inactive).

Consider `CCCCCCCCCCCCCCCC[n+]1ccc(/C=N/O)cc1`, for which the half-inhibitory concentration (IC50) was 1.54 µM.

As to `COc1ccc2cc(C(=O)O)ccc2c1`, the IC50 is 13.9 µM.

In the case of `O=C(O)c1ccccc1Nc1ccc([N+](=O)[O-])cc1`, the IC50 was 10.8 µM.

With `CCCCc1oc2ccccc2c1C(=O)c1cc(I)c(OCCN(CC)CC)c(I)c1`, the IC50 is 7.79 µM.

As for `Fc1ccc(Br)cc1C1C=C(c2cccnc2)Nc2ncnn21` (stereo unspecified), the IC50 was > 100 µM (inactive).

With `COC(=O)c1ccc(CSc2ccc3nnc(-c4cccc(F)c4)n3n2)o1`, the IC50 was > 100 µM (inactive).

As for `OC(CNCCc1ccc(C(F)(F)F)cc1)COc1ccc2ccccc2c1` (stereo unspecified), the IC50 was > 100 µM (inactive).

For `COc1cc(OC)nc(NC(=O)CS(=O)(=O)c2ccccc2)n1`, the IC50 is 33.4 µM.

With `O=C(OCn1ncc(Br)c(Br)c1=O)c1ccc(F)cc1`, the half-inhibitory concentration (IC50) is 6.92 µM.

Take `O=C(/C(=N/N=C/c1ccc(O)c(O)c1O)c1ccccc1)c1ccccc1`: the IC50 is 25.8 µM.

`Cc1nnc(C)n1/N=C/c1cc(Br)cc(Br)c1O`: the concentration for half-maximal inhibition (IC50) is 9.23 µM.

Consider `Cc1nn2c(-c3ccco3)nnc2c2ccccc12`, for which the IC50 was 26.5 µM.

Turning to `Oc1c(CN2CCN(c3ccc(F)cc3)CC2)cc(Cl)c2cccnc12`, the concentration for half-maximal inhibition (IC50) is 10.2 µM.

As to `COc1ccc(OCCNC2CCCC2)cc1`, the IC50 was > 100 µM (inactive).

Turning to `COc1cc(OC)c(C2CC(=O)N3CN(C)CSC3=C2C#N)cc1OC` (stereo unspecified), the IC50 is > 100 µM (inactive).

As to `Cc1nn2c(-c3ccncc3)nnc2c2ccccc12`, the IC50 is 6.35 µM.

For the compound `COC1=C(N)C(=O)c2nc(-c3nc(C(=O)O)c(C)c(-c4ccc(OC)c(OC)c4O)c3N)ccc2C1=O`, the 50% inhibitory concentration (IC50) is 0.212 µM.

As for `O=C1NC(c2ccccn2)Nc2sc3c(c21)CCC3` (stereo unspecified), the IC50 was > 100 µM (inactive).

On to `Cc1ccc(COc2ccc(Br)cc2/C=N/O)cc1`, for which the IC50 was > 100 µM (inactive).

Take `Cc1cc(O)c(/C=N/Nc2ccccc2Cl)c(=O)o1`: the IC50 was 29.7 µM.

As to `Cc1c2cc(O)c(=O)cc-2oc2cc(O)c(O)cc12`, the IC50 was 28.1 µM.

Take `CC1=NOC(=O)/C1=C/c1ccc(-c2ccc(Cl)cc2)o1`: the IC50 was > 100 µM (inactive).

Consider `Nc1ccc(O)c2c1C(=O)c1ccccc1C2=O`, for which the IC50 is 28.1 µM.

As to `Oc1c(I)cc(I)c2cccnc12`, the 50% inhibitory concentration (IC50) was 23.9 µM.

For the compound `CC(C)(C)n1nc(-c2ccc(Cl)cc2)c2c(N)ncnc21`, the IC50 was 20.7 µM.

As for `CCOC(=O)c1c(N)sc2c(OC)c(Br)ccc12`, the IC50 was > 100 µM (inactive).

Regarding `O=c1[nH][nH]cc1C=Nc1ccccc1O`, the IC50 was > 100 µM (inactive).

As for `Clc1ccc(CCNc2nc3ccccc3s2)cc1`, the IC50 was > 100 µM (inactive).

Regarding `CCCCCCCCCCn1c2c(c(=N)c3c1CCC3)CCC2`, the IC50 is 9.12 µM.

Take `Cn1c(SCC(=O)N/N=C/c2ccc([N+](=O)[O-])s2)nnc1-c1ccc(Cl)cc1`: the IC50 is 25.3 µM.

With `O=C1NCCCC1C(=O)N/N=C/c1cccc(O)c1` (stereo unspecified), the IC50 was > 100 µM (inactive).

As to `CCOC(=O)N1CCN(C(=O)Cn2nc(C)c3sc4ccccc4c3c2=O)CC1`, the IC50 is > 100 µM (inactive).

With `Cn1c(-c2ccco2)nc2cc3ccccc3cc21`, the concentration for half-maximal inhibition (IC50) was 39.7 µM.
